Among the test systems are BT-549 breast; HL-60(TB) leukemia; HT29 colon; KM12 colon; MALME-3M melanoma; OVCAR-5 ovarian; PC-3 prostate; SF-268 CNS; SF-539 CNS; SK-MEL-5 melanoma.
Assay in all cases: NCI anticancer screen, dose series, 48 h

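Cells were grown in 96-well plates and exposed to each compound for 48 hours at five concentrations; endpoints were interpolated linearly between bracketing concentrations, or set to the highest concentration if not reached. Here, GI50 denotes the concentration required for 50% inhibition of growth. TGI denotes the concentration required for complete inhibition of growth.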

As for `CC(C)=Cc1cc(C)c2ccc(C)c3c2c1C(C)=C(O)C3=O`, the GI50 with BT-549 breast was 28.7 µM; in the assay with HL-60(TB) leukemia it was 2.99 µM; in the assay with HT29 colon it was 28.7 µM; with KM12 colon it was 29.8 µM; with MALME-3M melanoma it was 34.9 µM; in the assay on OVCAR-5 ovarian it was 18.7 µM. The GI50 is 12.6 µM in the assay with PC-3 prostate, 0.0856 µM in the assay on SF-268 CNS, 32 µM in the assay on SF-539 CNS and 15.3 µM in the assay with SK-MEL-5 melanoma. The TGI is 89.5 µM in the assay on BT-549 breast; 9.9 µM in the assay on HL-60(TB) leukemia; more than 100 µM in the assay with HT29 colon; more than 100 µM in the assay with KM12 colon; more than 100 µM in the assay on MALME-3M melanoma; 43.1 µM in the assay with OVCAR-5 ovarian. Moreover, the TGI with PC-3 prostate was 37.8 µM; in the assay with SF-268 CNS, more than 100 µM; with SF-539 CNS, 79.5 µM; in the assay on SK-MEL-5 melanoma, 28.9 µM.
Regarding `NC(N)=NC(N)=Nc1ccc(C(=O)O)cc1`, the TGI in the assay with BT-549 breast, with HL-60(TB) leukemia, with HT29 colon, in the assay on KM12 colon, in the assay with MALME-3M melanoma and in the assay on OVCAR-5 ovarian was more than 100 µM in each case. Further, the TGI in the assay with PC-3 prostate, in the assay with SF-268 CNS, with SF-539 CNS and in the assay with SK-MEL-5 melanoma was more than 100 µM throughout.
`CCC[CH2][Sn]([CH2]CCC)([CH2]CCC)/[C](=C/[Si](C)(C)c1ccccc1)c1ccc2c(c1)OCO2`: the GI50 is 19.1 µM in the assay with BT-549 breast; 15.8 µM in the assay with HL-60(TB) leukemia; 19.2 µM with HT29 colon; 16.2 µM with KM12 colon; 3.2 µM in the assay with MALME-3M melanoma; 19 µM in the assay on OVCAR-5 ovarian. For the same compound, the GI50 is 31.4 µM in the assay on PC-3 prostate, 10.7 µM in the assay with SF-268 CNS, 36 µM in the assay with SF-539 CNS and 15.8 µM in the assay on SK-MEL-5 melanoma. Besides, the TGI in the assay with BT-549 breast was determined as 44.3 µM; in the assay on HL-60(TB) leukemia it was 35.4 µM; with HT29 colon, 55.3 µM; with KM12 colon, 34.1 µM; in the assay on MALME-3M melanoma, 15 µM; in the assay on OVCAR-5 ovarian it was 44 µM. Besides, the TGI with PC-3 prostate was more than 100 µM; with SF-268 CNS, 98.4 µM; with SF-539 CNS, more than 100 µM; with SK-MEL-5 melanoma, 30.1 µM.
With `N#CC1=C(N)NC(N2CCOCC2)=NC12Nc1ccccc1O2` (stereo not given), the GI50 with BT-549 breast was 43.5 µM; with HL-60(TB) leukemia, 48.3 µM; in the assay with HT29 colon, 47.2 µM; in the assay with KM12 colon, 49.8 µM; in the assay on MALME-3M melanoma it was more than 100 µM; in the assay with OVCAR-5 ovarian, more than 100 µM. Besides, the GI50 in the assay on PC-3 prostate was 31.8 µM; with SF-268 CNS, 33.8 µM; with SF-539 CNS it was 78.7 µM; in the assay with SK-MEL-5 melanoma, 22.7 µM. Also, the TGI in the assay on BT-549 breast, with HL-60(TB) leukemia, in the assay on HT29 colon, with KM12 colon, in the assay with MALME-3M melanoma and in the assay with OVCAR-5 ovarian was more than 100 µM each time. Besides, the TGI with PC-3 prostate, in the assay with SF-268 CNS, with SF-539 CNS and in the assay on SK-MEL-5 melanoma was more than 100 µM throughout.
Consider `O=C1OCC2=C1C(c1cccc(C(F)(F)F)c1)c1cc3c(cc1N2CCO)OCCO3` (stereo not given), for which the GI50 in the assay with BT-549 breast was 1.81 µM; in the assay with HL-60(TB) leukemia, 0.875 µM; in the assay on HT29 colon, 1.09 µM; with KM12 colon, 1.08 µM; in the assay with MALME-3M melanoma it was 2.86 µM; in the assay with OVCAR-5 ovarian, 1.75 µM. Moreover, the GI50 in the assay on PC-3 prostate is 1.24 µM; with SF-268 CNS, 2.54 µM; in the assay on SF-539 CNS, 0.849 µM; in the assay on SK-MEL-5 melanoma, 0.997 µM. In addition, the TGI is more than 33.3 µM in the assay on BT-549 breast; 2.44 µM with HL-60(TB) leukemia; more than 33.3 µM in the assay with HT29 colon; more than 33.3 µM with KM12 colon; more than 33.3 µM with MALME-3M melanoma; more than 33.3 µM with OVCAR-5 ovarian. Besides, the TGI with PC-3 prostate was more than 33.3 µM; in the assay on SF-268 CNS, more than 33.3 µM; in the assay on SF-539 CNS, 3.11 µM; in the assay on SK-MEL-5 melanoma, 6.97 µM.
For the compound `O=C(O)COc1ccc(OCC(=O)O)cc1`, the GI50 in the assay on BT-549 breast was 1.47 µM; in the assay on HL-60(TB) leukemia, 0.159 µM; in the assay on HT29 colon, 0.709 µM; in the assay on KM12 colon, 1.71 µM; in the assay on MALME-3M melanoma, 0.571 µM; in the assay with OVCAR-5 ovarian, 1.43 µM. For the same compound, the GI50 in the assay with PC-3 prostate is 2.03 µM; with SF-268 CNS it was 0.584 µM; in the assay on SF-539 CNS it was 0.365 µM; with SK-MEL-5 melanoma it was 0.362 µM. Besides, the TGI in the assay with BT-549 breast worked out at 11.6 µM; in the assay on HL-60(TB) leukemia it was 0.873 µM; with HT29 colon, 11.6 µM; in the assay with KM12 colon it was 10.7 µM; in the assay on MALME-3M melanoma, 10.5 µM; in the assay on OVCAR-5 ovarian it was 24.8 µM. Besides, the TGI came to 17.2 µM in the assay with PC-3 prostate, 13.5 µM in the assay with SF-268 CNS, 5.06 µM in the assay on SF-539 CNS and 2.31 µM in the assay on SK-MEL-5 melanoma.
With `CCCCC#Cc1c(I)n(C2OC(CO[Si](C)(C)C(C)(C)C)C3OC(C)(C)OC32)c(=O)n(C(=O)c2ccccc2)c1=O` (stereo not given), the GI50 is 8.98 µM in the assay on BT-549 breast; 10.1 µM with HL-60(TB) leukemia; 28.4 µM in the assay with HT29 colon; 1.5 µM in the assay with KM12 colon; 2.5 µM in the assay on MALME-3M melanoma; 17.1 µM in the assay on OVCAR-5 ovarian. Also, the GI50 with PC-3 prostate was 10.3 µM; with SF-268 CNS, 2.06 µM; in the assay on SF-539 CNS, 3.54 µM; in the assay with SK-MEL-5 melanoma, 14.2 µM. Further, the TGI with BT-549 breast is 20.4 µM; in the assay on HL-60(TB) leukemia it was 28.6 µM; in the assay with HT29 colon, more than 100 µM; in the assay with KM12 colon it was 3.05 µM; with MALME-3M melanoma, 4.91 µM; with OVCAR-5 ovarian, 31.7 µM. Also, the TGI in the assay with PC-3 prostate was 22.9 µM; in the assay with SF-268 CNS, 4.85 µM; with SF-539 CNS, 12.8 µM; with SK-MEL-5 melanoma, 27.2 µM.
